Experimental data: article PMC9963373, “Rationalizing the Binding Modes of PET Radiotracers Targeting the Norepinephrine Transporter” (Pharmaceutics, 2023)

Assays:
[1] = Rat biodistribution study, heart-to-blood ratio of fluorine-18-labeled tracers; format: in vivo; details: male Wistar rats, 10 min after tail vein administration of fluorine-18-labeled tracer (1-2 MBq), n = 3-6
Text: (§1) The experimental protocols were approved by the Animal Ethics Committee of the National Cerebral and Cardiovascular Center, Research Institute, Osaka, Japan (approval number 18019) and conducted in strict accordance with the Guide for the Care and Use of Laboratory Animals published by the US National Institutes of Health and the ARRIVE guidelines. Anesthesia was induced in male Wistar rats (n = 3–6 for each radiotracer, weighing 200–250 g on average, Charles River Laboratories, Research Models and Services, Germany GmbH, Sulzfeld, Germany) by using 5% isoflurane and maintained during the whole experiment with 2% isoflurane. Large animal PET imaging was performed on rhesus macaques (n = 2, weighing 3.9–4.2 kg, Primate Research Institute Kyoto University, Aichi, Japan). The induction of anesthesia in non-human primates (NHPs) was conducted by intramuscular injection of ketamine (1.5 mg/kg) and xylazine (0.6 mg/kg) to allow animal preparation and handling. After a tracheal cannula was inserted, 1.5% sevoflurane (SEVOFLURANE Inhalation Solution, Pfizer Japan Inc., Tokyo, Japan) vaporized with 100% oxygen was inhaled, and the tidal volume and respiratory rate of the ventilator were monitored and maintained in the normal range throughout the imaging sessions with an anesthesia workstation (Apollo®, Drägerwerk AG & Co. KGaA, Lübeck, Germany).
(§2) Preliminary PET imaging of [^18F]AF78(F) in rodents (n = 2) and NHPs (n = 2) was obtained according to a previously described protocol. For the rat biodistribution studies (n = 3–6 for each tracer), radiotracers (1–2 MBq) were administered via the tail vein. Ten minutes after radiotracer administration, the animals were euthanized. The organs of interest were harvested for tissue counting with a γ-counter (2480 Automatic Gamma Counter WIZARD^2, PerkinElmer LAS GmbH, Rodgau, Germany). Following weight and decay correction of the tissue counts, the heart-to-blood (H/B) ratios were calculated. A detailed experimental description can be found in the Supplementary Material. […]
PET Imaging and Biodistribution Study […]
Barbara, CA, US). For the rat biodistribution studies, radiotracers (1–2 MBq) were administered via the tail vein. Ten minutes after radiotracer administration, the animals were euthanized. The organs of interest were harvested for tissue counting with a γ-counter (2480 Automatic Gamma Counter WIZARD2, PerkinElmer, Rodgau, Germany). Following weight and decay correction of the tissue counts, the heart-to-blood ratios were calculated. NHPs (n = 2) were anesthetized during the imaging study and studied on a clinical PET scanner (PCA-2000A, Toshiba Medical Systems Corporation, Tochigi, Japan). After a 5 min transmission scan and an intravenous injection of the […]
and 300 s × 11) was started. […]

[2] = target: T1, NET (Homo sapiens, UniProt P23975); assay: Competitive cellular uptake assay against [3H]NE uptake in SK-N-SH cells
Text: It should be noted that the NET affinities of the tested compounds are expressed as IC50 in the current manuscript instead of the dissociation constant Kd. First, because all the tested compounds are substrates of NET that can be transported, they share the same binding site. […] Therefore, the IC50 value in the current study is considered equal to Kd without additional correction.
Competitive Cellular Uptake Studies
were cultivated according to the instructions from the supplier (Sigma-Aldrich Chemie GmbH,
Munich, Germany). One day before the competitive assay, the cells were seeded in 24-well plates
at a density of 1 × 10^5 cells/well and incubated in 0.5 mL of Eagle’s minimum essential medium
(EMEM) at 37 °C overnight. The medium was removed, and the cells were washed with 0.5 mL of
Dulbecco’s modified Eagle’s medium (DMEM) with low glucose containing 0.1% bovine serum
albumin (BSA). After washing, DMEM/0.1% BSA (300 µL) was added along with 50 µL of pargyline
presence of pyrogallol (20 µM final concentration, catechol-O-methyl transferase inhibitor) [1] and
pargyline (100 µM final concentration, monoamine oxidase inhibitor) [2], 50 µL of working solution
GBq/mmol, NET678250UC, PerkinElmer LAS GmbH, Germany) in DMEM/0.1% BSA together with
50 µL of the test compounds (desipramine, MIBG, HED and cold re ferences, each at different
incubation volume. The addition of the inhibitors of both enzymes involved in the natural
time. The plates were incubated at 37°C for 60 min. The cells were then washed with ice-cold PBS
(2 × 0.5 mL) followed by the addition of NaOH solution (0.1 N, 500 μL) and collection of the cell
lysates. Cell lysates (140 µL) were mixed with 1.8 mL of scintillation cocktail (Hionic-Fluor,
PerkinElmer, Rodgau, Germany) and radioactivity was measured in a liquid scintillation analyzer
All experimental data are presented as mean
± SD, with individual numbers measured in triplicate in experiment performed on 2–3 separate

[3] = tested on: NET; assay: PET imaging in non-human primates with and without desipramine blockade; format: in vivo, rhesus macaques; details: NHPs, n = 2; specificity proven by desipramine 1 mg/kg i.v. 10 min before tracer
Text: as §1, with “Large animal PET imaging was performed on rhesus macaques (n = 2, weighing 3.9–4.2 kg, Primate Research Institute Kyoto University, Aichi, Japan). The induction of anesthesia in non-human primates (NHPs) was conducted by intramuscular injection of ketamine (1.5 mg/kg) and xylazine (0.6 mg/kg) to allow animal preparation and handling.” left out
Preliminary PET imaging of [^18F]AF78(F) in rodents (n = 2) and NHPs (n = 2) was obtained according to a previously described protocol. […] Following weight and decay correction of the tissue counts, the heart-to-blood (H/B) ratios were calculated. […]

[4] = PET/CT imaging in healthy rats; format: in vivo; details: n = 2, 10-20 MBq via tail vein
Procedure: as §2
days. IC50 values were determined using nonlinear regression log(inhibitor) vs. normalized response in GraphPad Prism 8.4.3.
PET Imaging and Biodistribution Study
PET imaging of [18F]AF78(F) in rodents (n = 2) was obtained using a dedicated small animal PET system (microPET Focus 120, Siemens, Germany). […]
initiated with acquisition in list-mode format. […] Following weight and decay correction of the tissue counts, the heart-to-blood ratios were calculated. […]
injected 10 min before tracer administration, after which the PET scan started immediately. […] The obtained PET images were analyzed with the public domain tool AMIDE imaging software (A Medical Imaging Data Examiner, version 1.01).

[5] = target: T1, NET; parameters: Human neuroblastoma cell line SK-N-SH from metastatic bone marrow stably expressing NET; host or cells: SK-N-SH human neuroblastoma cells; method as in PMID 23306137; details: NE-NET; read-out: Michaelis constant Km; cited from earlier work

T1 sequence (P23975 whole entry): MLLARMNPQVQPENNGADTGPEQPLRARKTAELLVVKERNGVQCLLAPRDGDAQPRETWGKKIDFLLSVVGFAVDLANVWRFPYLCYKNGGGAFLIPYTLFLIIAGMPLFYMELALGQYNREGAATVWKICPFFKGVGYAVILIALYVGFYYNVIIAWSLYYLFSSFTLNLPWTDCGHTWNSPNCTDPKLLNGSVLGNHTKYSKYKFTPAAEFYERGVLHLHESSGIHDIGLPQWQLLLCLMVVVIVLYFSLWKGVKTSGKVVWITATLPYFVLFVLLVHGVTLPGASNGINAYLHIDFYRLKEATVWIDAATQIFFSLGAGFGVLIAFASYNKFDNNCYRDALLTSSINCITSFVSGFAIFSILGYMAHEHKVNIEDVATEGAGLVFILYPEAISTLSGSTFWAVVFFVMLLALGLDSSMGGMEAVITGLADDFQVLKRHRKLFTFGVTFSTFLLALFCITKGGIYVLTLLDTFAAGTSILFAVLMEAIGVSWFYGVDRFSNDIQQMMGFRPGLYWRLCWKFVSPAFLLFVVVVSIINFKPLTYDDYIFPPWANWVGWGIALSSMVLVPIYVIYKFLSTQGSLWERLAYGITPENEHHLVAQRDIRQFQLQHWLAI

Structure (SMILES) | heart-to-blood (H/B) ratio [1] | IC50 [2] [µM] | also measured
N=C(N)NCCc1ccc(OCCCF)c(Br)c1 [AF78(Br)] | 8.7 ± 1.4 | 3.32 ± 0.72 | 
N=C(N)NCCc1ccc(OCCCF)c(Cl)c1 [AF78(Cl)] | 10.4 ± 0.4 | 0.94 ± 0.28 | 
N=C(N)NCCc1ccc(OCCCF)c(F)c1 [AF78(F)] | 13.2 ± 1.2 |  | uptake in the heart (PET) [3]: distinct NET-mediated uptake in the heart; systemic distribution of the radiotracer (PET/CT) [4]: homogenous distribution throughout the left ventricular wall
N=C(N)NCCc1ccc(OCCCF)cc1 [AF78(H)] |  | 4.17 ± 0.92 | 
N=C(N)NCCc1ccc(OCCCF)c(I)c1 [AF78(I)] | 5.9 ± 0.4 | 6.51 ± 3.32 | fold less potent than AF78(F) ([2]; ratio of NET affinities in the competitive cellular uptake assay): 15 fold
N=C(N)NCCc1ccc(OCCCF)c(O)c1 [AF78(OH)] |  | 22.7 ± 3.58 | 
NC[C@H](O)c1ccc(O)c(O)c1 [NE, norepinephrine] |  |  | Km [5]: 280 ± 30 nM
